The source of these data is ChEMBL document CHEMBL2380240, “Discovery, synthesis, selectivity modulation and DMPK characterization of 5-azaspiro[2.4]heptanes as potent orexin receptor antagonists” (Bioorg Med Chem Lett, 2013).

The target in series [1] is T1, Orexin/Hypocretin receptor type 1 (Homo sapiens) (UniProt O43613).
T1 sequence (whole entry): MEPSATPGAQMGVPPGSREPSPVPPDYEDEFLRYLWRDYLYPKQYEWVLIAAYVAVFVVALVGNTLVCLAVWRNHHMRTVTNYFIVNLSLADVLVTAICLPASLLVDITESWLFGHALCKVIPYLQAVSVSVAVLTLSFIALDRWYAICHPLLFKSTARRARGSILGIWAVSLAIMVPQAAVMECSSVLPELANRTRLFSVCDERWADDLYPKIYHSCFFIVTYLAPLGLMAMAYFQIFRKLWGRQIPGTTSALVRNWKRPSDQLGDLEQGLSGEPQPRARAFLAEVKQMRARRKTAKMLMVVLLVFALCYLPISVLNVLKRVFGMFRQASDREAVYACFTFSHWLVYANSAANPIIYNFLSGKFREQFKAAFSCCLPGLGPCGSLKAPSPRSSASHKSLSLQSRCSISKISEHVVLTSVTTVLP
Nature of the series: Antagonist activity at human recombinant OX1 receptor expressed in CHO cells assessed as OXA-stimulated intracellular calcium mobilization by FLIPR assay. The class given is functional, cell-based.

In series [2] the target is T2, Orexin receptor type 2 (Homo sapiens) (UniProt O43614).
T2 sequence (whole entry): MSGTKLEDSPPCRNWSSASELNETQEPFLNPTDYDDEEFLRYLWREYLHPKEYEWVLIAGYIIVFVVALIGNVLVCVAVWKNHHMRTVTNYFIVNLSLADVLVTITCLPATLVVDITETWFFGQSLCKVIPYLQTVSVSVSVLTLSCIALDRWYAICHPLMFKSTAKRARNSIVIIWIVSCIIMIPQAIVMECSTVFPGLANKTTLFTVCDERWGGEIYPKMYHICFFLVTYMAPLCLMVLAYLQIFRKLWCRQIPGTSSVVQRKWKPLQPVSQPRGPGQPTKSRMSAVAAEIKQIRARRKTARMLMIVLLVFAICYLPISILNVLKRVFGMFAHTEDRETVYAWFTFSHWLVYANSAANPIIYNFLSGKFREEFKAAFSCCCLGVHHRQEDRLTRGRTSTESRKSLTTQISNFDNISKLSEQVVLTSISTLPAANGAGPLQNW
Nature of the series: Antagonist activity at human recombinant OX2 receptor expressed in HEK293 cells assessed as OXB-stimulated intracellular calcium mobilization by FLIPR assay. The format is functional, cell-based. For orientation: A change in cytosolic calcium serves as a functional read-out for many receptors and channels.

For series [3], the target named is CYP2C19 (Homo sapiens, UniProt P33261). The experiment in a line: Inhibition of human recombinant CYP2C19 at 3 uM by fluorimetric assay. The format is ADME.
The target in series [4] is CYP2C9 (Homo sapiens, UniProt P11712). Nature of the series: Inhibition of human recombinant CYP2C9 at 3 uM by fluorimetric assay. The format is ADME.
Series [5] has as its target T3, CYP1A2 (Homo sapiens, UniProt P05177).
T3 sequence (P05177 whole entry): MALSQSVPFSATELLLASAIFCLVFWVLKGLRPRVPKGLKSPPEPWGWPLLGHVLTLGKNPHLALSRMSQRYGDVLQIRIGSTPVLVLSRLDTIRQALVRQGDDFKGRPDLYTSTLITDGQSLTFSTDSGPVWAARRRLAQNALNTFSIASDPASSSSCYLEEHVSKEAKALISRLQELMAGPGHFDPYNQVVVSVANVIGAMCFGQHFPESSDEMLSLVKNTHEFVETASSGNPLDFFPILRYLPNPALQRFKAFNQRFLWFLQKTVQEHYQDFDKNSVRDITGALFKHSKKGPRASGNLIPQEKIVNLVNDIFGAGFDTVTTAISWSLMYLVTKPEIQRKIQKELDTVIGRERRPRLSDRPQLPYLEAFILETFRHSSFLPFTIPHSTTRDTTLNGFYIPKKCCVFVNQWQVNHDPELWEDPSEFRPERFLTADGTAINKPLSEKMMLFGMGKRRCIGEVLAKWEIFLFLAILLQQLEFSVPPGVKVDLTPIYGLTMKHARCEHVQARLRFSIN
Nature of the series: Inhibition of human recombinant CYP1A2 at 3 uM by fluorimetric assay. The format is ADME.

In series [6] the target is T4, CYP3A4 (Homo sapiens, UniProt P08684). Nature of the series: Inhibition of human recombinant CYP3A4 using BFC as substrate at 3 uM by fluorimetric assay. The format is ADME. Particulars: recombinant CYP3A4, probe BFC.
The target of series [7] is CYP2D6 (Homo sapiens, UniProt P10635). The experiment in a line: Inhibition of human recombinant CYP2D6 at 3 uM by fluorimetric assay. The class given is ADME.
In series [8] the target is T4, CYP3A4. The experiment in a line: Inhibition of human recombinant CYP3A4 using DBF as substrate at 3 uM by fluorimetric assay. The format is ADME. Particulars: recombinant CYP3A4, probe DBF.

Broadly, the pKb is −log10 of the Kb, conventionally taken in molar units. As a reminder, the inhibition is the percentage by which the read-out fell short of the control.

Sequence of CYP2D6 (P10635 whole entry): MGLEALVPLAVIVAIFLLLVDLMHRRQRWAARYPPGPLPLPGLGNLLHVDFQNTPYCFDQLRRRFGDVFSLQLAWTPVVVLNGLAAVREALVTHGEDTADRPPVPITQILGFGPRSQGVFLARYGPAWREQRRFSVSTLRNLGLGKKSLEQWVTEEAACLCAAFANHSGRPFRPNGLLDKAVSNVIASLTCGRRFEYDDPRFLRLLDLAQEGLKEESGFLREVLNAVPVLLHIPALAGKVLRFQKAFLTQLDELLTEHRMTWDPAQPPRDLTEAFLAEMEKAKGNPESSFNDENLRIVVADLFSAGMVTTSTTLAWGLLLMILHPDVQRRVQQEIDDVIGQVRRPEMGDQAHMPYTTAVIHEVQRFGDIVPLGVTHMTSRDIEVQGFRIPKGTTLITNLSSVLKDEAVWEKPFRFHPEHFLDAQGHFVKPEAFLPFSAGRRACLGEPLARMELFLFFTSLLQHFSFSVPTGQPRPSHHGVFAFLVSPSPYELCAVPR
Sequence of CYP2C9 (P11712 whole entry): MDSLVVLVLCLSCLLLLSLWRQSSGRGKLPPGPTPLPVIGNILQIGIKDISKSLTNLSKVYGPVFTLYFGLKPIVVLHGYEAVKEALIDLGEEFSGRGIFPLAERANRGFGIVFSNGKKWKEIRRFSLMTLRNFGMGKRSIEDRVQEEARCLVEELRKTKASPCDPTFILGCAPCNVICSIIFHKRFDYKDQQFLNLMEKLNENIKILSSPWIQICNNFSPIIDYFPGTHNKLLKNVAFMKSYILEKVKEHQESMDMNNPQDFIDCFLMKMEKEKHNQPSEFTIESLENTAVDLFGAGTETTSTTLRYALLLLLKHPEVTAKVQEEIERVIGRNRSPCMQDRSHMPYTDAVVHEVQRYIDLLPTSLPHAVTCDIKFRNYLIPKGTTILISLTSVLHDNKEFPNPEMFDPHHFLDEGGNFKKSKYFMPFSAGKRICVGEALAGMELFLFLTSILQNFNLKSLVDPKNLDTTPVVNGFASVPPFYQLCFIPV
Sequence of CYP2C19 (P33261 whole entry): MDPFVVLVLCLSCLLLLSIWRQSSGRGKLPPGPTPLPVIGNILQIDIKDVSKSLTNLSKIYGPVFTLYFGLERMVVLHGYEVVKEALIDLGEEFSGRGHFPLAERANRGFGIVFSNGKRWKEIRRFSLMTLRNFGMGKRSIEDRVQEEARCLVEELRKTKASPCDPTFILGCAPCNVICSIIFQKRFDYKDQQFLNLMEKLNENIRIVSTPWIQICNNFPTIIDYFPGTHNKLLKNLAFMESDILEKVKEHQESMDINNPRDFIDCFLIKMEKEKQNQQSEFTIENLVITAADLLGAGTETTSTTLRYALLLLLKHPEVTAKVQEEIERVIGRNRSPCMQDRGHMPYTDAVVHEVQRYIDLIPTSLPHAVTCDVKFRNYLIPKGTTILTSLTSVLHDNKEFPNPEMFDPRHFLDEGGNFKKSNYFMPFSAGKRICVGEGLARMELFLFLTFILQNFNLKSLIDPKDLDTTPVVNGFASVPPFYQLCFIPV
T4 sequence (P08684 whole entry): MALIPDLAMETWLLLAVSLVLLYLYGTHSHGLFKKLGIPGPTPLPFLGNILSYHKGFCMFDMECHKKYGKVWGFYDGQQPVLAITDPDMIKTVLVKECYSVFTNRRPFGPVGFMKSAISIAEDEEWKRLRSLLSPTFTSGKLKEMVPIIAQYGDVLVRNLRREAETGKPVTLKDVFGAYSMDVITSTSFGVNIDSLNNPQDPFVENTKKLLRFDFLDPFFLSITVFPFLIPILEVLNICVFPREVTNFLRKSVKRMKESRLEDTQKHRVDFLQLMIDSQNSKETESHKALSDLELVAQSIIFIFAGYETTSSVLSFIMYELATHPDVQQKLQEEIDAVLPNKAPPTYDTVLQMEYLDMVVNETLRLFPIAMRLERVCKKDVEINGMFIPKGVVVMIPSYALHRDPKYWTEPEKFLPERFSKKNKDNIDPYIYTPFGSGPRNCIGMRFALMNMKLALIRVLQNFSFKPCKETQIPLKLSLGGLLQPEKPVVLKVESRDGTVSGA

For the molecule `Cc1nc(C(=O)N2CC3(CC3)C[C@H]2CNc2ccc(Cl)cn2)c(-c2ccccc2)s1`, the pKb in series [1] was 8.3; in series [2], 7.1.

Consider `Cc1ccc(-n2nccn2)c(C(=O)N2CCC3(CC3)C[C@H]2CNc2cccc(C)n2)c1`, for which the pKb in series [1] was 8.2; in series [2] it was less than 5.

In the case of `Cc1nc(C(=O)N2CC3(CC3)C[C@H]2CNc2ncc(Cl)cn2)c(-c2ccccc2)s1`, the pKb in series [1] and in series [2] was 6.8 in each case.

Take `Cc1ccc(-c2nccs2)c(C(=O)N2CC3(CC3)C[C@H]2CNc2ccc(C(F)(F)F)cn2)n1`: the inhibition at 3 µM in series [3], in series [4], in series [5], in series [6], in series [7] and in series [8] was less than 89% each time. The figures for the pKb in series [1] and in series [2] were 8.6 and 8, respectively.

Take `Cc1cnn(-c2ccc(C)nc2C(=O)N2CC3(CC3)C[C@H]2CNc2ccc(C(F)(F)F)cn2)c1`: the inhibition at 3 µM in series [3], in series [4], in series [5], in series [6], in series [7] and in series [8] was less than 85% each time. The values for the pKb in series [1] and in series [2] were 8.9 and 8.3, respectively.

On to `Cc1ccc(-n2nccn2)c(C(=O)N2CC3(CC3)C[C@H]2CNc2ccc(Cl)cn2)c1`, for which the pKb was 8.1 in series [1] and less than 5 in series [2].

`O=C(c1cc(Cl)ccc1-c1ncccn1)N1CC2(CC2)C[C@H]1CNc1ccc(C(F)(F)F)cn1`: the inhibition at 3 µM in series [3], in series [4], in series [5], in series [6], in series [7] and in series [8] was less than 22% each time. Besides, the results for the pKb in series [1] and in series [2] were 8.1 and 7.2, respectively.

In the case of `Cc1nc(C(=O)N2CCC3(CC3)C[C@H]2CNc2ccc(Cl)cn2)c(-c2ccccc2)s1`, the pKb was 7.9 in series [1] and less than 5 in series [2].

Take `O=C(c1nc(OC(F)(F)F)ccc1-c1ncccn1)N1CC2(CC2)C[C@H]1CNc1ccc(C(F)(F)F)cn1`: the inhibition at 3 µM in series [3], in series [4], in series [5], in series [6], in series [7] and in series [8] was less than 58% each time. Further, the results for the pKb in series [1] and in series [2] were 7 and 6.9, respectively.

In the case of `O=C(c1nc(C(F)(F)F)ccc1-c1ncccn1)N1CC2(CC2)C[C@H]1CNc1ccc(C(F)(F)F)cn1`, the inhibition at 3 µM in series [3], in series [4], in series [5], in series [6], in series [7] and in series [8] was less than 39% in each case. For the same molecule, the pKb amounted to 6.7 in series [1] and 5 in series [2].

As for `Cc1ccc(-c2ncccn2)c(C(=O)N2CCC3(CC3)C[C@H]2CNc2ccc(Cl)cn2)c1`, the pKb in series [1] is 7.6; in series [2], less than 5.

As to `Cc1nc(C(=O)N2CCC3(CC3)C[C@H]2CNc2ccc(C(F)(F)F)cn2)c(-c2ccccc2)s1`, the pKb in series [1] was 7.7; in series [2] it was less than 5.

As for `Cc1ccnc(NC[C@@H]2CC3(CC3)CN2C(=O)c2nc(C)sc2-c2ccccc2)n1`, the pKb in series [1] worked out at 6.1; in series [2], 7.

As for `Cc1ccc(-c2ncccn2)c(C(=O)N2CC3(CC3)C[C@H]2CNc2ccc(C(F)(F)F)cn2)c1`, the pKb is 8.7 in series [1] and 6.6 in series [2].

For the molecule `Cc1cccc(NC[C@@H]2CC3(CC3)CN2C(=O)c2nc(C)sc2-c2ccccc2)n1`, the pKb in series [1] was found to be 7.3; in series [2], 7.6.

As for `Cc1ccc(-n2nccn2)c(C(=O)N2CCC3(CC3)C[C@H]2CNc2ccc(Cl)cn2)c1`, the pKb is 7.5 in series [1] and less than 5 in series [2].
